Laboratory results: ChEMBL document CHEMBL1240516, “Studies on ligand binding to histidine triad nucleotide binding protein 1” (Bioorg Med Chem, 2010)

How the values were obtained:
[1] = biological target: T1, Adenosine 5'-monophosphoramidase HINT1 (Mus musculus, UniProt P70349); test: Binding affinity to mouse HINT1 by HSQC spectra assay
T1 sequence (P70349 whole entry): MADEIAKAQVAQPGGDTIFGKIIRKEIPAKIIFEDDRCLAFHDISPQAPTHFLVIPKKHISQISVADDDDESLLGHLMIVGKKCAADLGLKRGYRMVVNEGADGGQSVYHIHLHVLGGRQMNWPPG

[2] = biological target: T1, Adenosine 5'-monophosphoramidase HINT1; test: Binding affinity to mouse HINT1 by fluorescence quenching assay
[3] = biological target: T1, Adenosine 5'-monophosphoramidase HINT1; test: Binding affinity to mouse HINT1 by NMR analysis

SMILES | Kd [1] [µM] | Kd [2] [µM] | Kd [3] [µM]
NC(=O)c1ncn([C@@H]2O[C@H](COP(=O)(O)O)[C@@H](O)[C@H]2O)c1N | 1200 | 1100 | –
Nc1nc2c(ncn2[C@@H]2O[C@H](COP(=O)(O)O)[C@H](O)[C@@H]2O)c(=O)[nH]1 [E626] | – | 67 | 60
